Assays:
[1] = system: streptozocin-induced diabetic mice; parameters: method as in PMID 27687881; details: cited from earlier work
high-glucose HepG2 cells = assay: high-glucose (insulin-resistant) HepG2 model: glucose, TC, TG; type: cell-based, human; details: for hypoglycemic effect (glucose level) compared between concentrations: 80 µg/mL, superior to acarbose positive control 5 µg/mL
Protocol: (§1) HepG2 cells at 10 to 40 generations were configured at a concentration of 4 × 10^5/mL. The cells suspension 100 µL was inoculated into a culture plate with DMEM (10 mL) containing glucose 4.5 g/L, 10% FBS, penicillin (1000 U/mL), and streptomycin ([…]), and cultivated in a 37 °C, 5% CO2 incubator.
When the cells were increased to about 80%, insulin at a concentration of 10^−5 mmol/L was treated for 24 h to induce the formation of insulin-resistant cells. […] After the treatment of 24 h with different samples, the glucose, TC, and TG content in the HepG2 cell supernatant was measured with glucose, TC, and TG assay kits.

α-glucosidase [2] = biological target: T1, α-glucosidase (Saccharomyces cerevisiae, UniProt P53341); assay: FT-IR secondary structure of α-glucosidase (amide I curve fitting); details: astragalin 100 µg/mL
Source text: The secondary conformation of α-glucosidase (1 U/mL) with or without sample treatment were detected with a Fourier transform infrared spectrometer (FT-IR) (VERTEX 7.0, BRUKER Co., Ltd., Bremen, Germany), by fitting the infrared amide type I curve (1600–1700 cm^−1).

[3] = system: AMPK signaling pathway (p-AMPK, ACC, GLUT4); assay: Western blotting of AMPK pathway proteins in high-glucose HepG2 cells; type: cell-based, human
Protocol: Protein samples of 20 µg were separated by sodium dodecyl sulfate polyacrylamide gel electrophoresis in the Bio-Rad electrophoresis apparatus (Liuyi Biotechnology Co., Ltd., Beijing, China), and then transferred to polyvinylidene fluoride membranes. The electrophoretic proteins were sealed with 5% skimmed milk at room temperature for 1 h, and the membranes were incubated overnight with primary antibodies, including AMPK, phospho-AMPK (p-AMPK), acetyl CoA carboxylase (ACC, EC 6.4.1.2), and glucose transporter 4 (GLUT4) at 4 °C. After washing the membrane with phosphate-buffered saline tween-20, the membranes were incubated with secondary antibodies at room temperature for 1 h.

α-glucosidase [4] = biological target: T1, α-glucosidase; assay: fluorescence quenching of α-glucosidase (Stern–Volmer); type: binding
Source text: The mixture was scanned using fluorescence spectroscopy (SpectraMax i3x, Molecular Devices, LLC., San Jose, CA, USA). The excitation wavelength was set at 280 nm, and the emission wavelength at 300–500 nm, with excitation and emission slit widths of 5 nm. Then, the following Stern–Volmer dynamic collision quenching equations were applied to calculate the fluorescence quenching parameters, including the quenching constants (KSV), quenching rate constant (Kq), binding constant (Ka), and binding site number (n). The equations are described below:(2) F0/F=1+KSV[Q]=1+Kqτ0[Q] (3) lgF0−F/F=lgKa+nlg[Q]

Müller cells = details: high glucose; cited from earlier work
HepG2 cells = assay: HepG2 cell survival rate (CCK-8); type: cell-based, human; details: 0–200 µg/mL, 24 h
Protocol: as §1
Each sample was added to a 96-well plate with HepG2 cells and incubated in a 37 °C, 5% CO2 incubator for 24 h. After washing twice with PBS, the CCK-8 solution 100 µL was added, and incubated for another 4 h. The absorbance at 450 nm was measured using a Microplate reader (Bio TekGen5, BioTech Instruments, Co., Ltd., Winooski, VT, USA). The cells’ survival rates were calculated based on the formula as shown below:Cell survival rate (%) = A samples/A black control × 100%(5)

α-glucosidase [5] = biological target: T1, α-glucosidase; details: reported compound; cited from earlier work
[6] = different concentrations, high-glucose HepG2 cells

T1 sequence (P53341 whole entry): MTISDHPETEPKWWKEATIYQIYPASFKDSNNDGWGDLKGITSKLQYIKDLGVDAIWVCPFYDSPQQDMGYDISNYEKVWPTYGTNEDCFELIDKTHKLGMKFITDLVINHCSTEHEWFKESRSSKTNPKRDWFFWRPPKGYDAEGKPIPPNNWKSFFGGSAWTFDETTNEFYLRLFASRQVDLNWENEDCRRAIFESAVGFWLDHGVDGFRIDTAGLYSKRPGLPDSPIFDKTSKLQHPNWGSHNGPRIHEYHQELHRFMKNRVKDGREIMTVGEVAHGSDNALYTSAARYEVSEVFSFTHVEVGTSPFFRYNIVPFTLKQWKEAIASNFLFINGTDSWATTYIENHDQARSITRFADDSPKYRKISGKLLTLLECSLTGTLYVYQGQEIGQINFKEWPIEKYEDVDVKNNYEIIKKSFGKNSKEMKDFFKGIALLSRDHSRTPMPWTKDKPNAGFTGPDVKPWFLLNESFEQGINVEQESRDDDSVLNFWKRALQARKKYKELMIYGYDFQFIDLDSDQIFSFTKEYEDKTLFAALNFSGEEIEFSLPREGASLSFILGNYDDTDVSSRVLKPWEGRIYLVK

## O=c1c(O[C@@H]2O[C@H](CO)[C@@H](O)[C@H](O)[C@H]2O)c(-c2ccc(O)cc2)oc2cc(O)cc(O)c12 [astragalin, kaempferol-3-O-β-D-glucopyranoside]
[1]
  hypoglycemic effects in diabetic mice: improved the glucose tolerance and reduced the level of glucose
high-glucose HepG2 cells
  hypoglycemic effect (glucose level) compared between concentrations: the activity was the strongest
high-glucose HepG2 cells; listed as Astragalin
  hypoglycemic effect (glucose level) compared between concentrations: best hypoglycemic effect
high-glucose HepG2 cells; 20, 80, and 200 µg/mL, 24 h, insulin-induced high-glucose HepG2
  glucose level in the cells: reduced the glucose level in the cells
high-glucose HepG2 cells; [6]
  TC level: reduced the levels of TC
  TG level: reduced the levels of TC and TG
α-glucosidase [2]; without astragalin 11.72%
  β-turn content of α-glucosidase with astragalin: 19.30%
α-glucosidase [2]; without astragalin 11.94%
  β-sheet content of α-glucosidase with astragalin: 4.71%
α-glucosidase [2]; without astragalin 21.08%
  random coil content of α-glucosidase with astragalin: 38.79%
[3]; 20 µg/mL
  GLUT4 protein expression level: significantly increased
[3]; 80 µg/mL
  ACC protein expression level: significantly down-regulated
[3]; 80 and 200 µg/mL
  p-AMPK protein expression level: up-regulated
α-glucosidase [4]; 298 K
  KSV (quenching constant): 9.093 ×10^3 Lmol^−1
  n (binding site number): 1.238
α-glucosidase [4]; 304 K
  KSV (quenching constant): 7.903 ×10^3 Lmol^−1
  n (binding site number): 1.1905
α-glucosidase [4]; 310 K
  KSV (quenching constant): 7.061 ×10^3 Lmol^−1
  n (binding site number): 0.8446
α-glucosidase [4]; free enzyme around 346 nm, excitation 280 nm, 298 K
  maximum fluorescence emission wavelength of α-glucosidase with astragalin: 349 nm
α-glucosidase [4]; under three temperature conditions, compared with maximum diffusion collision quenching constant
  Kq values: higher than 2.0 × 10^10 Lmol^−1 s^−1
Müller cells
  vascular endothelial growth factor over-expression: decreased the over-expression
HepG2 cells
  CCK-8 cell survival: within the safe range

## COc1cc(OC)c2c(ccc3cc(OC)c(O)cc32)c1 [batatasin I]
α-glucosidase [5]
  IC50: 2550 µM

Source: PMC11820219 (Nutrients, 2025)
